This is an account of results in publication PMC6976569, “Structural basis of subtype-selective competitive antagonism for GluN2C/2D-containing NMDA receptors” (Nature Communications, 2020).

For series [1], the target named is T1, GluN1-4a/GluN2C NMDARs (Rattus norvegicus, UniProt P35439+Q00961).
T1 construct: expressed in transfected cells; host or cells: Xenopus laevis oocytes injected with cRNA
Kind of series: TEVC electrophysiology on Xenopus laevis oocytes expressing GluN1-4a/GluN2C. The following applies: Ki, 100 μM glycine, 1 or 3 μM L-glutamate. The format is cell-based. The source says: (§1) The chemical definition of UBP791 used in this study is a cis-racemic mixture of (2S,3R)- and (2R,3S)-isomers.
(§2) Plasmids (pSP or pCI_NEO) harboring rat GluN1 or GluN2 full-length subunits were linearized by restriction digestion and transcribed according to the manufacturer’s instructions (mMESSAGE mMachine SP6 or T7 kit, ThermoFisher Scientific). Recombinant rat GluN1-4a and GluN2 were expressed by co-injecting cRNA at a 1:2 (w/w) ratio into defolliculated X. laevis oocytes (amounts varied from 0.05–25 ng per oocyte). Two-electrode voltage-clamp recordings were performed 1–3 days after injection using agarose-tipped microelectrodes (0.4–1.2 MΩ) filled with 3 M KCl at a holding potential of −60 mV. The bath solution contained 5 mM HEPES, 100 mM NaCl, 0.3 mM BaCl2, 10 mM Tricine, at pH 7.4 (adjusted with KOH). […] For the statistical evaluation, we implemented pairwise F-tests to test variances, and then performed the Student t test with equal or unequal variances as determined previously, and accounted for multiple testing with the Bonferroni correction.

The target of series [2] is T2, GluN1-4a/GluN2A-4m NMDAR (Ala414Arg, Lys738Met, Gly740Arg, Arg741Lys) (Rattus norvegicus, UniProt P35439+Q00959, A414R/G740R/K738M/R741K).
T2 construct: we incorporated the mutations, Ala414Arg, Lys738Met, Gly740Arg, and Arg741Lys, in the full-length GluN2A (GluN2A-4m); expressed in transfected cells; host or cells: Xenopus laevis oocytes injected with cRNA
Kind of series: TEVC electrophysiology on oocytes expressing GluN1-4a/GluN2A-4m mutant. It is filed as cell-based.
Text: (§3) Our previous structure of the GluN1–GluN2A LBD complexed to PPDA unambiguously mapped the antagonist-binding site at the cleft of the bilobe architecture of the GluN2 LBD (PDB: 4NF6). […] In this study, we focus on the comparison between the GluN2A and GluN2D subunits, since sequence and functional similarities between GluN2A and GluN2B and between GluN2C and GluN2D are high. Near the PPDA-binding pocket in the GluN2A LBD (Fig. 3a), the primary sequences across the GluN2A-D subunits are mostly identical except for four residues, GluN2A-Ala414, Lys738, Gly740, and Arg741, which are Arg, Met, Arg, and Lys residues in GluN2D, respectively (Fig. 3a; yellow residues and arrows in the sequence alignment). GluN2A-Ala414 is located in the D1-lobe, whereas GluN2A-Lys738, Gly740, and Arg741 are on Helix H in the D2-lobe proximal to the predicted binding site for the carboxyethyl group of UBP791. These residues are completely conserved among human, rat, and chicken, though GluN2A-Ala414 and -Lys738 are not conserved in X. laevis (frog) and Danio rerio (zebrafish) (Supplementary Fig. 1).
as §2

The target of series [3] is T3, GluN1-4a/GluN2A-4m NMDAR (Ala414Arg, Lys738Met, Gly740Arg, Arg741Lys) (Rattus norvegicus, UniProt Q00959, A414R/G740R/K738M/R741K).
T3 construct: we incorporated the mutations, Ala414Arg, Lys738Met, Gly740Arg, and Arg741Lys, in the full-length GluN2A (GluN2A-4m); expressed in transfected cells; host or cells: Xenopus laevis oocytes injected with cRNA
The description is as above. The format is cell-based. The following applies: Ki GluN2A-4m relative to Ki GluN2D (WT).
Text: as §3, §2

The target of series [4] is T4, GluN1-4a/GluN2D Met763Lys NMDARs (Rattus norvegicus, UniProt P35439+Q62645, M763K).
T4 construct: expressed in transfected cells; host or cells: Xenopus laevis oocytes injected with cRNA
Kind of series: TEVC electrophysiology on oocytes expressing GluN1-4a/GluN2D Met763Lys. It is filed as cell-based.
Text: (§4) To test the validity of the structural observation for the critical involvement of the methionine/lysine residue combination (GluN2D-Met763/Lys766, and GluN2A-4m-Met738/Lys741) in preferential binding of UBP791 to GluN2D over GluN2A, we conducted site-directed mutagenesis and assessed inhibition potencies of the mutant channels by TEVC. Specifically, we converted the GluN2D residues to the equivalent ones in the GluN2A subunit and measured macroscopic currents of the GluN1-4a/GluN2D mutant NMDARs.
as §2

For series [5], the target named is T5, GluN1-4a/GluN2D Lys766Arg NMDARs (Rattus norvegicus, UniProt P35439+Q62645, K766R).
T5 construct: expressed in transfected cells; host or cells: Xenopus laevis oocytes injected with cRNA
Kind of series: TEVC electrophysiology on oocytes expressing GluN1-4a/GluN2D Lys766Arg. It is filed as cell-based.
Text: as §4, §2

Series [6] addresses T6, GluN1-4a/GluN2D Met763Lys/Lys766Arg NMDARs (Rattus norvegicus, UniProt P35439+Q62645, K766R/M763K).
T6 construct: expressed in transfected cells; host or cells: Xenopus laevis oocytes injected with cRNA
Kind of series: TEVC electrophysiology on oocytes expressing GluN1-4a/GluN2D Met763Lys/Lys766Arg. It is filed as cell-based.
Text: as §4, §2

Series [7] has as its target T7, GluN1-4a/GluN2D Met763Lys/Lys766Arg NMDARs (Rattus norvegicus, UniProt Q62645, K766R/M763K).
T7 construct: expressed in transfected cells; host or cells: Xenopus laevis oocytes injected with cRNA
Described as above. The format is cell-based. The conditions noted are these: Ki mutant relative to Ki GluN2D (WT).
Text: as §4, §2

Series [8] can be described thus: Water solubility (statement). The following applies: authors' statement in peer review file. The format is physicochemical.
The target in series [9] is T8, GluN1-4a/GluN2C NMDARs (Rattus norvegicus, UniProt Q00961).
T8 construct: expressed in transfected cells; host or cells: Xenopus laevis oocytes injected with cRNA
Kind of series: TEVC electrophysiology on Xenopus laevis oocytes expressing GluN1-4a/GluN2C. The format is cell-based. The conditions noted are these: Ki GluN2C relative to Ki GluN2D (WT).
Text: as §1, §2

Structures are written as SMILES. Several values for one entry are separate records, joined by “and”; a condition that tells them apart may be missing. Identical values can stand only once.

T1 sequence (Q00961 20-1237, other chains not shown): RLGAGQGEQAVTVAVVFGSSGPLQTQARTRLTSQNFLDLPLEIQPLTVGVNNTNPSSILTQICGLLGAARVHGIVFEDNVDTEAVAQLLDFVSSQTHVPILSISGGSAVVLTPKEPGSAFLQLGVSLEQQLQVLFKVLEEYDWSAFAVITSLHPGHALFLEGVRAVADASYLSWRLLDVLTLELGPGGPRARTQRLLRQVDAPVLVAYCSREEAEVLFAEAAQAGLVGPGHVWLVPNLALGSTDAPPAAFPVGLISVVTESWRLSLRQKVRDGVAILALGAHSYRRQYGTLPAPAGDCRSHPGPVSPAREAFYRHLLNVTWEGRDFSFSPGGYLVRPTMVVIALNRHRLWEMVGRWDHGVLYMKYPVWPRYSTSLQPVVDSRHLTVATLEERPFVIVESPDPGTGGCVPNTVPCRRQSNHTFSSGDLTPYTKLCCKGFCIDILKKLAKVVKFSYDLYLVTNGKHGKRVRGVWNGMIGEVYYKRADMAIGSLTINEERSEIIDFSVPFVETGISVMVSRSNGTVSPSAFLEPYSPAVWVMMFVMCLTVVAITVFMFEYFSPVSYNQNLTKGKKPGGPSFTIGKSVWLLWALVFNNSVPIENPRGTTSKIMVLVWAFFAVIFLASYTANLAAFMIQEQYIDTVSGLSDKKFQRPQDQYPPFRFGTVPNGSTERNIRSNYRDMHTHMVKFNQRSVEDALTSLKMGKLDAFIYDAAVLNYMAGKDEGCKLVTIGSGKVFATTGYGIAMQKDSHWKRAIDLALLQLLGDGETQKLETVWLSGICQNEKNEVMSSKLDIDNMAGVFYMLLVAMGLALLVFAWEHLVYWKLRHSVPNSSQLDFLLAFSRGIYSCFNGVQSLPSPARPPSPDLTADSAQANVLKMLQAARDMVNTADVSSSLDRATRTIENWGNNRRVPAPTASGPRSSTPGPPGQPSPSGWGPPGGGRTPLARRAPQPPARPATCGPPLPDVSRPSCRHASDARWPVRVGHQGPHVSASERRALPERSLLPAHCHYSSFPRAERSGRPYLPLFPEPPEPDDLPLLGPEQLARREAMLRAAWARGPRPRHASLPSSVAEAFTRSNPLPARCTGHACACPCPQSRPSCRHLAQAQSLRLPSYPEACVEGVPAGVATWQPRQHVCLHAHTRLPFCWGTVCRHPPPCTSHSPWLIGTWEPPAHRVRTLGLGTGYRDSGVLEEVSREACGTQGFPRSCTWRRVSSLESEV
T4 sequence (Q62645 28-1323 M763K, other chains not shown): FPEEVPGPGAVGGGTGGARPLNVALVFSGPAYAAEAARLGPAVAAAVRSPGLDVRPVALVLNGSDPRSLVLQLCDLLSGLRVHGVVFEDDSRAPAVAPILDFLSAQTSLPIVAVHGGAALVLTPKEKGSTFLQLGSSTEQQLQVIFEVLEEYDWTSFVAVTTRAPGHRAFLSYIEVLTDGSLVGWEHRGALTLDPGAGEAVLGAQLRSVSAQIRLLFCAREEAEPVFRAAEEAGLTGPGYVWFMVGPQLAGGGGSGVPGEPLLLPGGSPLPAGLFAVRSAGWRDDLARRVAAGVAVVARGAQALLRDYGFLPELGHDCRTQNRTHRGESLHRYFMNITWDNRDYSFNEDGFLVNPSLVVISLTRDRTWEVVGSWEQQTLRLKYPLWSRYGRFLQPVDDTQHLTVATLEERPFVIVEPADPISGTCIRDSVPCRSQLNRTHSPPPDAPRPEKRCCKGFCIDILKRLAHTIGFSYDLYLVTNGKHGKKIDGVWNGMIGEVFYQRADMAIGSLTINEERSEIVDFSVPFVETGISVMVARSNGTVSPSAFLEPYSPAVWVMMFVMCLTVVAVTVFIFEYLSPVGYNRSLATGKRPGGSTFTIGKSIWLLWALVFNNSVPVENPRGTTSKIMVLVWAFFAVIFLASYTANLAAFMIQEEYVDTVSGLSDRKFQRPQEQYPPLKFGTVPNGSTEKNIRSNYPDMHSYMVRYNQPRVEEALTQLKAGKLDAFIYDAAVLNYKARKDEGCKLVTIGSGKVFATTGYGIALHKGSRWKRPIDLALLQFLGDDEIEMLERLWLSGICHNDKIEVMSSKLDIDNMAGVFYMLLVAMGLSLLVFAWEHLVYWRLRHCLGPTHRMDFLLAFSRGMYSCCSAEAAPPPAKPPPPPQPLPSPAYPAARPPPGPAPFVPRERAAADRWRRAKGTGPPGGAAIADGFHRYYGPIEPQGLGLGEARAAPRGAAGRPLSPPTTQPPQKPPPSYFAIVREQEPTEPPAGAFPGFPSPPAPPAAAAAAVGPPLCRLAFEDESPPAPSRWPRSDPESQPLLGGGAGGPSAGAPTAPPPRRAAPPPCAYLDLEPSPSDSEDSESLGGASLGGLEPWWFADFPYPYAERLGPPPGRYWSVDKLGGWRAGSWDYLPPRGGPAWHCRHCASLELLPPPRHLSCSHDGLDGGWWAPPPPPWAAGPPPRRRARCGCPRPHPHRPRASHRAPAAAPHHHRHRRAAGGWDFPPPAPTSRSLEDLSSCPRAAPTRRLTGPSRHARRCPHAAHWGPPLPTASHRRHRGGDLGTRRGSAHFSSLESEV
T6 sequence (Q62645 28-1323 M763K/K766R, other chains not shown): as the sequence (Q62645 28-1323 M763K, other chains not shown) above, with K739R counted along it
T3 sequence (Q00959 23-1464 A414R/K738M/G740R/R741K, other chains not shown): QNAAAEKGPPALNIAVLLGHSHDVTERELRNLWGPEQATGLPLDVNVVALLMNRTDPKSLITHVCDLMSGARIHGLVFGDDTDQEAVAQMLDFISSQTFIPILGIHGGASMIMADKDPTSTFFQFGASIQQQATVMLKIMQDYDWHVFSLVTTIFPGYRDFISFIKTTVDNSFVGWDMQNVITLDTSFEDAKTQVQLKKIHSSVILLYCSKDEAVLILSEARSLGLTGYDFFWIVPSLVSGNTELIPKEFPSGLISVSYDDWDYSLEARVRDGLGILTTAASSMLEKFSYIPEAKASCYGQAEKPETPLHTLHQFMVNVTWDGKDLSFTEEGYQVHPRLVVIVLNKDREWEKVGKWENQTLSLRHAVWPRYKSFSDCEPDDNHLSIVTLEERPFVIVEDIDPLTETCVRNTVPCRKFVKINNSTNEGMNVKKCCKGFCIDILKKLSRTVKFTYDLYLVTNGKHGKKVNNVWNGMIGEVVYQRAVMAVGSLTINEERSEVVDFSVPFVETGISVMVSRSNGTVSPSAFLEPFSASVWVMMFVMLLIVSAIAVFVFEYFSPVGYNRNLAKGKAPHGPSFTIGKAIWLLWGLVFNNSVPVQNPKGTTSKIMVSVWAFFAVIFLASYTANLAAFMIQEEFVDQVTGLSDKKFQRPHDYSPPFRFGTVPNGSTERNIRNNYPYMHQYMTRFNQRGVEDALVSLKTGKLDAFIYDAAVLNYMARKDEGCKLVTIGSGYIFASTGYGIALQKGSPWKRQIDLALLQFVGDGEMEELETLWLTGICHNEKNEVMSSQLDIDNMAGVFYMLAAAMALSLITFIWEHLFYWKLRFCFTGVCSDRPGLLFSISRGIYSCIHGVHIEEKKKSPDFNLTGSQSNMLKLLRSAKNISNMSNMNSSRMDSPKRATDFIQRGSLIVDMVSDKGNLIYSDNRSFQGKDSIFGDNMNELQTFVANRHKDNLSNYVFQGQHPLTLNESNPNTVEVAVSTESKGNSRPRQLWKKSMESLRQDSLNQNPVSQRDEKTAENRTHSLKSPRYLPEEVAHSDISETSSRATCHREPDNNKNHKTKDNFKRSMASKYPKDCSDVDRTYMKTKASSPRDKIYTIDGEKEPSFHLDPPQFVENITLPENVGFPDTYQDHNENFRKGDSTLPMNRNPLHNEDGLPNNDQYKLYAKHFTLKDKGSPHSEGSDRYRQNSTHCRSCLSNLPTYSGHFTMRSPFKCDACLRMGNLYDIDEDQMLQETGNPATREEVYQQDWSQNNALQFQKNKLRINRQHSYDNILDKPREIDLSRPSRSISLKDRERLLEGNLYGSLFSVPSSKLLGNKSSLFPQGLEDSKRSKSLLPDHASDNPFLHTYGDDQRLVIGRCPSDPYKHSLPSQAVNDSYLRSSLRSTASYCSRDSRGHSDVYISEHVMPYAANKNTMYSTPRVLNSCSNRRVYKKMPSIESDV
T5 sequence (Q62645 28-1323 K766R, other chains not shown): as the sequence (Q62645 28-1323 M763K, other chains not shown) above, with K736M, K739R counted along it
T7 sequence (Q62645 28-1323 M763K/K766R, other chains not shown): as the sequence (Q62645 28-1323 M763K, other chains not shown) above, with K739R counted along it
T8 sequence (Q00961 20-1237, other chains not shown): as the sequence (Q00961 20-1237, other chains not shown) above

Usually Ki stands for the dissociation constant of the complex between target and ligand, obtained from inhibition or displacement. In general, IC50 refers to the concentration that inhibits the measured activity by half. As to `O=C(O)CCc1ccc2c(ccc3cc(C(=O)N4CCN[C@@H](C(=O)O)[C@H]4C(=O)O)ccc32)c1` (relative stereo) [UBP791, (2S*,3R*)-1-(7-(2-carboxyethyl)phenanthrene-2-carbonyl)piperazine-2,3-dicarboxylic acid], the inhibition constant Ki on GluN1-4a/GluN2C NMDARs [1] (Cheng–Prusoff from IC50 and L-glutamate EC50) is 80 ± 10 nM; at GluN1-4a/GluN2C NMDARs [1] (Cheng–Prusoff) it was 80 to 90 nM; in [2], 710 ± 140 nM; in [4] it was 410 ± 70 nM; in series [5], 170 ± 30 nM; in series [6], 1150 ± 50 nM. For the same compound, in series [3], the “fold difference of Ki vs. 2D (GluN2A-4m)” value is recorded as ~ 8 fold. For the same compound, the results for the 50% inhibitory concentration (IC50) in [4], in series [5] and in [6] were 1900 ± 60 nM, 1450 ± 80 nM and 7240 ± 440 nM, respectively. In addition, the “fold difference of Ki vs. 2D (WT) (2D-M763K/K766R)” value in series [7] is reported as 13 fold. Moreover, in [8], the “water solubility relative to PPDA” value is recorded as “more water soluble than PPDA”.

In the case of `O=C(O)C=Cc1ccc2c(ccc3cc(C(=O)N4CCN[C@@H](C(=O)O)[C@H]4C(=O)O)ccc32)c1` (relative stereo) [UBP1700, (2S*,3R*)-1-(7-(2-carboxyvinyl)phenanthrene-2-carbonyl)piperazine-2,3-dicarboxylic acid], the Ki at GluN1-4a/GluN2C NMDARs [1] (Cheng–Prusoff) was 7 to 9 nM and 9 nM; in series [2], 50 nM. For the same compound, on GluN1-4a/GluN2C NMDARs [9], the “fold difference of Ki vs. 2D (GluN2C)” value is ~ 1.3 fold. Moreover, the “fold difference of Ki vs. 2D (GluN2A-4m)” value in series [3] was ~ 7 fold. In series [8], the “water solubility relative to PPDA” value is given as “more water soluble than PPDA”.
